The record followed here is patent US20090325954A1, “2-BENZIMIDAZOLYL-6-MORPHOLINO-4-PHENYLPYRIMIDINE DERIVATIVES AS PI3K AND MTOR INHIBITORS FOR THE TREATMENT OF PROLIFERATIVE DISORDERS” (priority 2006, published 2009).

For one experiment, the target named is T1, p110α Type Ia human PI3K (Homo sapiens, UniProt P42336).
T1 construct: full length DNA of each of the p110α, p110β and […] Type Ia human PI3K p110 isoforms; 6-His; made in house
The experiment in a line: In vitro PI3K enzyme assay (AlphaScreen), Test (a). Conditions: read-out: IC50 versus p110α Type Ia human PI3K. The experiment is classed as biochemical. The source says:
The assay used AlphaScreen technology (Gray et al., Analytical Biochemistry, 2003, 313: 234-245) to determine the ability of test compounds to inhibit phosphorylation by recombinant Type I PI3K enzymes of the lipid PI(4,5)P2.
DNA fragments encoding human PI3K catalytic and regulatory subunits were isolated from cDNA libraries using standard molecular biology and PCR cloning techniques. The selected DNA fragments were used to generate baculovirus expression vectors. In particular, full length DNA of each of the p110α, p110β and […] Type Ia human PI3K p110 isoforms (EMBL Accession Nos. HSU79143, S67334, Y10055 for p110a, p110β and p110δ respectively) were sub-cloned into a pDEST10 vector (Invitrogen Limited, Fountain Drive, Paisley, UK). The vector is a Gateway-adapted version of Fastbac1 containing a 6-His epitope tag. […]
Biotinylated-DiC8-PI(3,4,5)P3 (50 nM; Cell Signals Inc., Catalogue No. 107), recombinant purified GST-Grp1 PH protein (2.5 nM) and AlphaScreen Anti-GST donor and acceptor beads (100 ng; Packard Bioscience Limited, Station Road, Pangbourne, Berkshire, UK, Catalogue No. 6760603M) were added and the assay plates were left for about 5 to 20 hours at room temperature in the dark. The resultant signals arising from laser light excitation at […] were read using a Packard AlphaQuest instrument. […]

In experiment [1] the test system is phosphorylation of Serine 473 in Akt. The experiment in a line: In vitro phospho-Ser473 Akt assay in MDA-MB-468 cells, Test (c). In kind it is cell-based. Conditions: Homo sapiens, read-out: IC50, inhibition of phosphorylation of Serine 473 in Akt. As for the experimental part: This assay determines the ability of test compounds to inhibit phosphorylation of Serine 473 in Akt as assessed using Acumen Explorer technology (TTP LabTech Limited, Royston, Herts, SG8 6EE, UK), a plate reader that can be used to rapidly quantitate features of images generated by laser-scanning.
A MDA-MB-468 human breast adenocarcinoma cell line (LGC Promochem, Teddington, Middlesex, UK, Catalogue No. HTB-132) was routinely maintained at 37° C. with 5% CO2 up to a confluency of 70-90% in DMEM containing 10% FCS and 1% L-glutamine.
For the assay, the cells were detached from the culture flask using ‘Accutase’ (Innovative Cell Technologies Inc., San Diego, Calif., USA; Catalogue No. AT104) using standard tissue culture methods and resuspended in media to give 5.5×10^4 cells per ml. Aliquots (90 μl) were seeded into each of the inner 60 wells of a black ‘Costar’ 96-well plate (Corning Inc., NY, USA; Catalogue No. 3904) to give a density of ˜5000 cells per well. Aliquots (90 μl) of culture media were placed in the outer wells to prevent edge effects. [An alternative cell handling procedure involved the maintenance of the cells in a ‘SelecT’ robotic device (The Automation Partnership, Royston, Herts SG8 5WY, UK). Cells were resuspended in media to give 5×10^4 cells per ml. Aliquots (100 μl) were seeded into the wells of a black ‘Costar’ 96-well plate.] […]

Each structure is given as a SMILES string. pIC50: −log10 of the molar value.

T1 sequence (P42336 whole entry, canonical isoform): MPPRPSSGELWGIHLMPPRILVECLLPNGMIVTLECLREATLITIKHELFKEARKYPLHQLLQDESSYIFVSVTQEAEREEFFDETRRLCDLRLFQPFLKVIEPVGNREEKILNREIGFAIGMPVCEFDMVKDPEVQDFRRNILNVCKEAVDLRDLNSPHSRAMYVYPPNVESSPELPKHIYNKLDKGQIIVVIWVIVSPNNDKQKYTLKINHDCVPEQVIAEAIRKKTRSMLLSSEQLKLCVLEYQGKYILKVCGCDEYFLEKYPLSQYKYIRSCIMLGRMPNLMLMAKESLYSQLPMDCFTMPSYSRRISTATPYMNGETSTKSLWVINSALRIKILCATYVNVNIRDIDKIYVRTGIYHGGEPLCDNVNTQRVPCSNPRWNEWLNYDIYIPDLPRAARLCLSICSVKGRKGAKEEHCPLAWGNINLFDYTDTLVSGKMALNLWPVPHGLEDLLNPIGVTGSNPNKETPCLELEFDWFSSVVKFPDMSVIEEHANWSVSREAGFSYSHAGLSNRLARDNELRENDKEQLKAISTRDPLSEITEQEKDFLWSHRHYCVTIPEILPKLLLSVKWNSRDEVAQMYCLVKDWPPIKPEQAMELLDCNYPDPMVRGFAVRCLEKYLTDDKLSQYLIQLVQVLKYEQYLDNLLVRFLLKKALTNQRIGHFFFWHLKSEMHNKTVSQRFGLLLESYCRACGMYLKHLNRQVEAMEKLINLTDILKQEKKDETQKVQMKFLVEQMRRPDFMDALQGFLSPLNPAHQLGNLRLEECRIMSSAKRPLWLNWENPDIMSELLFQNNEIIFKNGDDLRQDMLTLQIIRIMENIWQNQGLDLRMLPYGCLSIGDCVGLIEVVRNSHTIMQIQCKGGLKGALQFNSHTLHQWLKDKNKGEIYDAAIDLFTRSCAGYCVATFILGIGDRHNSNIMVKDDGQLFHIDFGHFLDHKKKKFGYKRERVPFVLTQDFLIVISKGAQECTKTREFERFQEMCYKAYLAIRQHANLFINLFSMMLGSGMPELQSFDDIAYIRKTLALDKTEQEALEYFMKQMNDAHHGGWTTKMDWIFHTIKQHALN
T1 sequence (P27986 whole entry partner, canonical isoform): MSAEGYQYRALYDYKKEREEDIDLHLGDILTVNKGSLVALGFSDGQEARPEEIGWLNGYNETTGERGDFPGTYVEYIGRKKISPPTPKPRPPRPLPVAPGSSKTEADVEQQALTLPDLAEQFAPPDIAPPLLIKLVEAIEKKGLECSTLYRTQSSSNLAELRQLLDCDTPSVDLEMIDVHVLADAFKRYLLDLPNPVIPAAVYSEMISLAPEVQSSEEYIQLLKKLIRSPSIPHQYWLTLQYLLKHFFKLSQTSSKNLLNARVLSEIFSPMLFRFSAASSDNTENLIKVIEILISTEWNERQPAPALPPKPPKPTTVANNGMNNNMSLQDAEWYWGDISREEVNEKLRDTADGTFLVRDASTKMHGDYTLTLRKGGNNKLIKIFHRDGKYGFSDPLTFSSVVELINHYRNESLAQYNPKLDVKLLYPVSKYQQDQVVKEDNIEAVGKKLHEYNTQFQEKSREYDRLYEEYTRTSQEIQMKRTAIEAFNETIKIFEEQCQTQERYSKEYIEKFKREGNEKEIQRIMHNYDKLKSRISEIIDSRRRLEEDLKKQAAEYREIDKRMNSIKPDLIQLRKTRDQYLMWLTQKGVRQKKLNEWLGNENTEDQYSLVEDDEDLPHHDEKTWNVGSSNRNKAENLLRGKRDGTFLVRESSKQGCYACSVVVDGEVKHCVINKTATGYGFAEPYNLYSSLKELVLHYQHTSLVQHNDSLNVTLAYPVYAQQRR

As for `CN(C)CCNC(=O)c1ccc(-c2cc(N3CCOCC3)nc(-n3c(C(F)F)nc4ccccc43)n2)cc1` [Example 9, 2-(2-difluoromethylbenzimidazol-1-yl)-4-{4-[N-(2-dimethylaminoethyl)carbamoyl]phenyl}-6-morpholinopyrimidine], the negative logarithm of the IC50 (pIC50) on p110α Type Ia human PI3K is about 6.52; in experiment [1], about 7.00.
For the compound `CNCC(=O)Nc1ccc(-c2cc(N3CCOCC3)nc(-n3c(C(F)F)nc4ccccc43)n2)cc1` [Example 5, 2-(2-difluoromethylbenzimidazol-1-yl)-6-morpholino-4-(4-sarcosylaminophenyl)pyrimidine], the results for the pIC50 (on p110α Type Ia human PI3K; in experiment [1]) were about 6.52 and about 7.70, respectively.
